Experiments:
[1] = tested on: Puccinia recondita f. sp. tritici; assay: Example A10: Puccinia recondita f. sp. tritici / wheat / leaf disc preventative (brown rust); assay type: in vivo; conditions: foliar, compared to untreated control
Description: Example A10: Puccinia recondita f. Sp. Tritici/Wheat/Leaf Disc Preventative (Brown Rust) Wheat leaf segments cv. Kanzler are placed on agar in multiwell plates (24-well format) and sprayed with the formulated test compound diluted in water. The leaf disks are inoculated with a spore suspension of the fungus 1 day after application. The inoculated leaf segments are incubated at 19° C. and 75% rh under a light regime of 12 h light/12 h darkness in a climate cabinet and the activity of a compound is assessed as percent disease control compared to untreated when an appropriate level of disease damage appears in untreated check leaf segments (7-9 days after application). […] […].10, and X.11.

[2] = tested on: Glomerella lagenarium (Colletotrichum lagenarium); assay: Example A3: Glomerella lagenarium (Colletotrichum lagenarium) / liquid culture (anthracnose); assay type: cell-based; conditions: Colletotrichum orbiculare, compared to untreated control
Excerpt: Example A3: Glomerella lagenarium (Colletotrichum lagenarium)/Liquid Culture (Anthracnose) Conidia of the fungus from cryogenic storage are directly mixed into nutrient broth (PDB potato dextrose broth). […] […].10, and X.11.

Pyrenophora teres = assay: Example A12: Pyrenophora teres / barley / leaf disc preventative (net blotch); assay type: in vivo; conditions: foliar, compared to untreated control
Description: Example A12: Pyrenophora teres/Barley/Leaf Disc Preventative (Net Blotch) Barley leaf segments cv. Hasso are placed on agar in a multiwell plate (24-well format) and sprayed with the formulated test compound diluted in water. The leaf […] inoculated with a spore suspension of the fungus 2 days after application. The inoculated leaf segments are incubated at 20° C. and 65% rh under a light regime of 12 h light/12 h darkness in a climate cabinet and the activity of a compound is assessed as disease control compared to untreated when an appropriate level of disease damage appears in untreated check leaf segments (5-7 days after application). […] […].10, and X.11.

[3] = tested on: Blumeria graminis f. sp. tritici (Erysiphe graminis f. sp. tritici); assay: Example A4: Blumeria graminis f. sp. tritici / wheat / leaf disc preventative (powdery mildew on wheat); assay type: in vivo; conditions: foliar, compared to untreated control
Excerpt: Example A4: Blumeria graminis f. Sp. Tritici (Erysiphe graminis f. Sp. Tritici)/Wheat/Leaf Disc Preventative (Powdery Mildew on Wheat) Wheat leaf segments cv. Kanzler are placed on agar in a multiwell plate (24-well format) and sprayed with the formulated test compound diluted in water. The leaf disks are inoculated by shaking powdery mildew infected plants above the test plates 1 day after application. […] […].10, and X.11.

[4] = tested on: Magnaporthe grisea (Pyricularia oryzae); assay: whole plant or invertebrate; assay type: in vivo; conditions: foliar, read-out: control of Magnaporthe grisea
[5] = tested on: Monographella nivalis (Microdochium nivale); assay: Example A6: Monographella nivalis (Microdochium nivale) / liquid culture (foot rot cereals); assay type: cell-based; conditions: compared to untreated control
Excerpt: Example A6: Monographella nivalis (Microdochium nivale)/Liquid Culture (Foot Rot Cereals) Conidia of the fungus from cryogenic storage are directly mixed into nutrient broth (PDB potato dextrose broth). […] […].10, and X.11.

Alternaria solani = assay: Example A1: Alternaria solani / tomato / leaf disc (early blight); assay type: in vivo; conditions: foliar, tomato leaf disks, compared to untreated control
Description: Example A1: Alternaria solani/Tomato/Leaf Disc (Early Blight) Tomato leaf disks cv. Baby are placed on agar in multiwell plates (24-well format) and sprayed with the formulated test compound diluted in water. The leaf disks are inoculated with a spore suspension of the fungus 2 days after application. The inoculated leaf disks are incubated at 23° C./21° C. […] […].10, and X.11.

Sclerotinia sclerotiorum = assay: Example A13: Sclerotinia sclerotiorum / liquid culture (cottony rot); assay type: cell-based; conditions: 20 ppm, compared to untreated control

Cc1sc(N(C(=O)C2CCOC2)c2cc(F)nc(F)c2)nc1C(=O)N(C(=O)C1CCOC1)C1CCC1(C)C (centres unmarked) [Compound X.01, 2-[(2,6-difluoro-4-pyridyl)-(tetrahydrofuran-3-carbonyl)amino]-N-(2,2-dimethylcyclobutyl)-5-methyl-N-(tetrahydrofuran-3-carbonyl)thiazole-4-carboxamide]
pest or weed control at 200 ppm [1]: ≥ 80% | inhibition of growth at 20 ppm [2]: ≥ 80% | pest or weed control at 200 ppm (Pyrenophora teres): ≥ 80% | pest or weed control at 200 ppm [3]: ≥ 80% | pest or weed control at 200 ppm [4]: ≥ 80% | inhibition of growth at 20 ppm [5]: ≥ 80% | pest or weed control at 200 ppm (Alternaria solani): ≥ 80%

Cc1sc(N(C(=O)C2CCCO2)c2cc(F)nc(F)c2)nc1C(=O)NC1CCC1(C)C (centres unmarked) [X.02, 2-[(2,6-difluoro-4-pyridyl)-(tetrahydrofuran-2-carbonyl)amino]-N-(2,2-dimethylcyclobutyl)-5-methyl-thiazole-4-carboxamide]
pest or weed control at 200 ppm [1]: ≥ 80% | inhibition of growth at 20 ppm [2]: ≥ 80% | pest or weed control at 200 ppm (Pyrenophora teres): ≥ 80% | pest or weed control at 200 ppm [3]: ≥ 80% | pest or weed control at 200 ppm [4]: ≥ 80% | inhibition of growth at 20 ppm [5]: ≥ 80% | pest or weed control at 200 ppm (Alternaria solani): ≥ 80%

Cc1sc(N(C(=O)C2CCOC2)c2cc(F)nc(F)c2)nc1C(=O)NC1CCC1(C)C (centres unmarked) [X.03, 2-[(2,6-difluoro-4-pyridyl)-(tetrahydrofuran-3-carbonyl)amino]-N-(2,2-dimethylcyclobutyl)-5-methyl-thiazole-4-carboxamide]
pest or weed control at 200 ppm [1]: ≥ 80% | inhibition of growth at 20 ppm [2]: ≥ 80% | pest or weed control at 200 ppm (Pyrenophora teres): ≥ 80% | pest or weed control at 200 ppm [3]: ≥ 80% | pest or weed control at 200 ppm [4]: ≥ 80% | inhibition of growth at 20 ppm [5]: ≥ 80% | pest or weed control at 200 ppm (Alternaria solani): ≥ 80%

Cc1sc(N(C(=O)C2COC2)c2cc(F)nc(F)c2)nc1C(=O)NC1CCC1(C)C (centres unmarked) [X.04, 2-[(2,6-difluoro-4-pyridyl)-(oxetane-3-carbonyl)amino]-N-(2,2-dimethylcyclobutyl)-5-methyl-thiazole-4-carboxamide]
pest or weed control at 200 ppm [1]: ≥ 80% | inhibition of growth at 20 ppm [2]: ≥ 80% | pest or weed control at 200 ppm (Pyrenophora teres): ≥ 80% | pest or weed control at 200 ppm [3]: ≥ 80% | pest or weed control at 200 ppm [4]: ≥ 80% | inhibition of growth at 20 ppm [5]: ≥ 80% | pest or weed control at 200 ppm (Alternaria solani): ≥ 80%

Cc1sc(N(C(=O)C(C)OC(C)(C)C)c2cc(F)nc(F)c2)nc1C(=O)NC1CCC1(C)C (centres unmarked) [X.05, 2-[2-tert-butoxypropanoyl-(2,6-difluoro-4-pyridyl)amino]-N-(2,2-dimethylcyclobutyl)-5-methyl-thiazole-4-carboxamide]
pest or weed control at 200 ppm [1]: ≥ 80% | pest or weed control at 200 ppm (Pyrenophora teres): ≥ 80% | pest or weed control at 200 ppm [3]: ≥ 80% | pest or weed control at 200 ppm [4]: ≥ 80% | inhibition of growth at 20 ppm [5]: ≥ 80% | pest or weed control at 200 ppm (Alternaria solani): ≥ 80%

Cc1sc(N(C(=O)C(C)OC(C)C)c2cc(F)nc(F)c2)nc1C(=O)NC1CCC1(C)C (centres unmarked) [X.06, 2-[(2,6-difluoro-4-pyridyl)-(2-isopropoxypropanoyl)amino]-N-(2,2-dimethylcyclobutyl)-5-methyl-thiazole-4-carboxamide]
pest or weed control at 200 ppm [1]: ≥ 80% | inhibition of growth at 20 ppm [2]: ≥ 80% | pest or weed control at 200 ppm (Pyrenophora teres): ≥ 80% | pest or weed control at 200 ppm [3]: ≥ 80% | pest or weed control at 200 ppm [4]: ≥ 80% | inhibition of growth at 20 ppm [5]: ≥ 80% | pest or weed control at 200 ppm (Alternaria solani): ≥ 80%

Cc1sc(N(C(=O)COC(C)(C)C)c2cc(F)nc(F)c2)nc1C(=O)NC1CCC1(C)C (centres unmarked) [X.07, 2-[(2-tert-butoxyacetyl)-(2,6-difluoro-4-pyridyl)amino]-N-(2,2-dimethylcyclobutyl)-5-methyl-thiazole-4-carboxamide]
pest or weed control at 200 ppm [3]: ≥ 80% | pest or weed control at 200 ppm [4]: ≥ 80%

Cc1sc(N(C(=O)COC(C)C)c2cc(F)nc(F)c2)nc1C(=O)NC1CCC1(C)C (centres unmarked) [X.08, 2-[(2,6-difluoro-4-pyridyl)-(2-isopropoxyacetyl)amino]-N-(2,2-dimethylcyclobutyl)-5-methyl-thiazole-4-carboxamide]
pest or weed control at 200 ppm [3]: ≥ 80% | pest or weed control at 200 ppm [4]: ≥ 80%

COC(C)C(=O)N(c1cc(F)nc(F)c1)c1nc(C(=O)NC2CCC2(C)C)c(C)s1 (centres unmarked) [X.09, 2-[(2,6-difluoro-4-pyridyl)-(2-methoxypropanoyl)amino]-N-(2,2-dimethylcyclobutyl)-5-methyl-thiazole-4-carboxamide]
pest or weed control at 200 ppm [1]: ≥ 80% | inhibition of growth at 20 ppm [2]: ≥ 80% | pest or weed control at 200 ppm (Pyrenophora teres): ≥ 80% | pest or weed control at 200 ppm [3]: ≥ 80% | pest or weed control at 200 ppm [4]: ≥ 80% | inhibition of growth at 20 ppm [5]: ≥ 80% | pest or weed control at 200 ppm (Alternaria solani): ≥ 80%

Cc1sc(N(C(=O)C(C)S(C)(=O)=O)c2cc(F)nc(F)c2)nc1C(=O)NC1CCC1(C)C (centres unmarked) [X.10, 2-[(2,6-difluoro-4-pyridyl)-(2-methylsulfonylpropanoyl)amino]-N-(2,2-dimethylcyclobutyl)-5-methyl-thiazole-4-carboxamide]
inhibition of growth at 20 ppm [2]: ≥ 80% | pest or weed control at 200 ppm (Pyrenophora teres): ≥ 80% | pest or weed control at 200 ppm [3]: ≥ 80% | pest or weed control at 200 ppm [4]: ≥ 80% | control of Sclerotinia sclerotiorum (Sclerotinia sclerotiorum): at least 80% | inhibition of growth at 20 ppm [5]: ≥ 80% | pest or weed control at 200 ppm (Alternaria solani): ≥ 80%

Cc1sc(N(C(=O)C2CCOCC2)c2cc(F)nc(F)c2)nc1C(=O)NC1CCC1(C)C (centres unmarked) [X.11, 2-[(2,6-difluoro-4-pyridyl)-(tetrahydropyran-4-carbonyl)amino]-N-(2,2-dimethylcyclobutyl)-5-methyl-thiazole-4-carboxamide]
pest or weed control at 200 ppm [1]: ≥ 80% | inhibition of growth at 20 ppm [2]: ≥ 80% | pest or weed control at 200 ppm (Pyrenophora teres): ≥ 80% | pest or weed control at 200 ppm [3]: ≥ 80% | inhibition of growth at 20 ppm [5]: ≥ 80% | pest or weed control at 200 ppm (Alternaria solani): ≥ 80%

— patent US20250040552A1, “FUNGICIDAL COMPOSITIONS” (SYNGENTA CROP PROTECTION AG, priority 2021, published 2025)
